{"source": "patent US6528276B1", "about": "“Fusion proteins, DNA molecules, vectors, and host cells useful for measuring protease activity” (priority 1998, dated 2003)", "molecules": {"B1": {"name": "pVgRXR-5A(Stop)5B: control fusion protein with tandem stop codons in the 5A/5B cleavage site (SEQ ID NO:22) (protein)", "chain": "MAPPTDVSLGDELHLDGEDVAMAHADALDDFDLDMLGDGDSPGPGFTPHDSAPYGALDMADFEFEQMFTDALGIDEYGGKLLGTGADTEDVVCC"}, "B2": {"name": "VgRXR: Invitrogen vector product: modified ecdysone receptor/VP16 fusion (VgEcR) plus RXR (protein)", "chain": "TPTTPLHLQQNLGGAGGGGIGGMGILHHANGTPNGLIGVVGGGGGVGLGVGGGGVGGLGMQHTPRSDSVNSISSGRDDLSPSSSLNGYSANESCDAKKSKKGPAPRVQEELCLVCGDRASGYHYNALTCEGCKGFFRRSVTKSAVYCCKFGRACEMDMYMRRKCQECRLKKCLAVGMRPECVVPENQCAMKRREKKAQKEKDKMTTSPSSQHGGNGSLASGGGQDFVKKEILDLMTCEPPQHATIPLLPDEILAKCQARNIPSLTYNQLAVIYKLIWYQDGYEQPSEEDLRRIMSQPDENESQTDVSFRHITEITILTVQLIVEFAKGLPAFTKIPQEDQITLLKACSSEVMMLRMARRYDHSSDSIFFANNRSYTRDSYKMAGMADNIEDLLHFCRQMFSMKVDNVEYALLTAIVIFSDRPGLEKAQLVEAIQSYYIDTLRIYILNRHCGDSMSLVFYAKLLSILTELRTLGNQNAEMCFSLKLKNRKLPKFLEEIWDVHAIPPSVQSHLQITQEENERLERAERMRASVGGAITAGIDCDSASTSAAAAAAQHQPQPQPQPQPSSLTQNDSQHQTQPQLQPQLPPQLQGQLQPQLQPQLQTQLQPQIQPQPQLLPVSAPVPASVTAPGSLSAVSTSSEYMGGSAAIGPITPATTSSITAAVTASSTTSAVPMGNGVGVGVGVGGNVSMYANAQTAMALMGVALHSHQEQLIGGVAVKSEHSTTA", "modifications": "left off: large carriers", "notes": "Invitrogen vector product: modified ecdysone receptor/VP16 fusion (VgEcR) plus RXR"}}, "key": {"[1]": {"test_system": "fusion protein EdR5A/5B (i.e., the protein encoded by VgRXR-5A/5B)", "assay": "Ligand-induced activation of the VgRXR-5A/5B fusion protein, luciferase reporter in COS cells without protease", "format": "cell-based", "protocol": "(§1) COS African green monkey kidney cells were plated at approximately 150,000 cells/well in a 6-well plate. The next day, approximately 3.6 μg plasmid DNA was dissolved in 100 μl of Dulbecco's modified Eagle's media-Gibco BRL (DMEM), combined with 29 μl of Superfect reagent (Qiagen), and then mixed by pipetting. The mixture was incubated at room temperature for ten minutes.\n(§2) The amounts of DNA typically used in each experiment was as follows: 0.6 μg of pIND-Luc, 0.6 μg of pVgRXR-5A/5B or pVgRXR-5A**5B, and 0-2.4 μg of pSRα-NS3-4A or pSRα-NS3-4A(S1165A) or pSRα.\n(§3) Next 600 μl of DMEM with v/v 10% fetal bovine serum (10% FBS-DMEM) was added to the DNA mixture and mixed by pipetting. The cells in the 6-well plate were washed with 2.5 ml phosphate-buffered saline (PBS). The PBS was removed from the cells and replaced by the DNA mixture. The cells were incubated in the DNA mixture for three hours at 37° C. in a 5% CO2 incubator.\nAfter incubation, the cells were washed with PBS. The PBS was removed and 10% FBS-DMEM was added to the cells. The cells were incubated in 10% FBS-DMEM overnight at 37° C. in a 5% CO2 incubator.\nOn the next day, an exogenous ligand was added to the cells to induce transcription of the reporter gene. Specifically, the 10% FBS-DMEM was aspirated off the cells and replaced with a 10% FBS-DMEM solution containing a concentration of 1-10 μM muristerone A or 1-10 μM ponasterone A (Invitrogen, United Kingdom). In some cases, a protease inhibitor dissolved in dimethylsulfoxide(DMSO) was also added to the cells for a final concentration of 1-40 μM. The cells were incubated with muristerone A or ponasterone A for 24 hours at 37° C. in a 5% CO2 incubator.\nThe following day, the cells were washed with PBS. The activity of the luciferase protein was measured using a luciferase assay kit (Promega). Specifically, the cells were lysed in 250 μl of Cell Culture Lysis Reagent. The cells were scraped from the plate and transferred to a microfuge tube. The extract was spun at 12,000×g for 5 seconds. Twenty microliters of each sample was added to 100 μl of Luciferase Assay Reagent. The light produced by the reaction of the luciferase with the Reagent was measured in a luminometer and was reported as relative light units (RLU).\nThe plasmid pIND-Luc (0.6 μg) was cotransfected with pVgRXR-5A/5B (0.6 μg) in the absence or presence of 1.8 μg of pSRαNS3-4A. On the following day, the cells were incubated with varying amounts of ponasterone A, a ligand which induces the neterodimerization of ecdysone receptor with the mammalian […], RXR. The cells were lysed and assayed for luciferase activity as described previously. The results are depicted in FIG. 7. […]"}, "[2]": {"test_system": "pIND-Luc luciferase reporter", "assay": "Muristerone A-induced transactivation of pIND-Luc by expressed fusion proteins in COS cells", "format": "cell-based, African green monkey", "conditions": "1 μM muristerone A", "protocol": "as §1, §2, §3\nAfter incubation, the cells were washed with PBS. The PBS was removed and 10% FBS-DMEM was added to the cells. […]\nThe following day, the cells were washed with PBS. The activity of the luciferase protein was measured using a luciferase assay kit (Promega). […] The light produced by the reaction of the luciferase with the Reagent was measured in a luminometer and was reported as relative light units (RLU). […]"}}, "data": [{"molecule": "CC(C)CC[C@@H](O)[C@](C)(O)[C@H]1CC[C@@]2(O)C3=CC(=O)[C@@H]4C[C@@H](O)[C@@H](O)C[C@]4(C)[C@H]3CC[C@]12C", "note": "[ponasterone A]", "values": [{"measurement": "activation of the fusion protein", "setting": "[1]; absence of the protease NS3-4A", "value": "effective at activating the fusion protein"}, {"measurement": "induction of transcription compared with muristerone A", "setting": "[1]; in these assays", "value": "equally effective"}, {"measurement": "ponasterone A concentration giving greatest activation of the fusion protein", "setting": "[1]; tested at 1, 3.3, 10, 33, 100 μM, COS cells", "value": "3.3 to 10", "unit": "µM"}]}, {"molecule": "C[S+](C)[O-]", "note": "[DMSO, dimethylsulfoxide]", "values": [{"measurement": "effect on ponasterone A-induced luciferase activity", "setting": "[1]; DMSO concentrations up to 1% (v/v), 5 μM ponasterone A, with or without pSRαNS3-4A", "value": "little or no effect"}]}, {"molecule": "B1", "values": [{"measurement": "muristerone A-induced luciferase activity of the expressed fusion protein", "setting": "[2]; 24 hours, no protease, FIG. 4", "value": "negligible activity"}]}, {"molecule": "B2", "values": [{"measurement": "change in luciferase activity when coexpressed with the protease NS3-4A", "setting": "[2]; increasing amounts of pSRαNS3-4A", "value": "little or no change"}]}]}
